Measured values taken from US20240148722A1, “SMALL MOLECULES THAT BIND TO TDP-43 FOR THE TREATMENT OF ALS AND RELATED DISORDERS” (Biohaven Therapeutics Ltd., priority 2021, published 2024).

Molecular target: TDP-43 1-260 (Homo sapiens, UniProt Q13148)
Test: TDP-43 alpha-screen assay with bt-TAR32
Type: binding
Details: bt-TAR32 0.125 nM; 3 h at room temperature; read-out: Activity (μM) in the TDP-43-DNA alpha-screen assay
Procedure: Alpha-screen assay. […] Briefly, assays contained TDP-43 1-260 (15 ng/mL, 0.27 nM), 10 mg/mL of both streptavidin donor beads and anti-GST acceptor beads with various concentrations of bt-TAR32 (˜18 to +14 in the HIV1 LTR) and test compound in a final volume of 20 mL of 25 mM Tris, 0.1% CHAPS, pH 7.4 in white, opaque low volume 384-well plates. After 3 h incubation at room temperature, the AlphaScreen signal was measured using a Synergy 2 plate reader (Biotek, Winooski, VT). […] Nonspecific binding was determined in the presence of 10 mM bt-TDP43 and was less than 10% of total binding. IC50 values were obtained from nonlinear regression fits of the data to a one-site binding model using Graph Pad Prism, version 5.0 (GraphPad Software, San Diego, CA). Comparison of competitive inhibition and mixed type inhibition models were evaluated using the F-test on global fits of the data also in Graph Pad Prism, version 5.0.

Chain of TDP-43 1-260 (Q13148 1-260): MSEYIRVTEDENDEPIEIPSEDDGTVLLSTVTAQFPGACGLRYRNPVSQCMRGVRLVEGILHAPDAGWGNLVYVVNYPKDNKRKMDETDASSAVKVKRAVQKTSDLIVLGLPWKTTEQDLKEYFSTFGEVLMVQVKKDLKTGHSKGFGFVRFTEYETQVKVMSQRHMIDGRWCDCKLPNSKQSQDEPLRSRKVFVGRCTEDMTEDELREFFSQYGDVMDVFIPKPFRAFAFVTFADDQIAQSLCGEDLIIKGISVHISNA

Molecule | IC50 [µM]
COc1ccc(-c2cc(NC3CCN(CC4CNC4)CC3)cc(-c3ccc(N4CCN(C)CC4)cc3)n2)cc1 [Example 12, N-(1-(azetidin-3-ylmethyl)piperidin-4-yl)-2-(4-methoxyphenyl)-6-(4-(4-methylpiperazin-1-yl)phenyl)pyridin-4-amine] | 0.06
COc1ccc(-c2cc(NCC3CCNC3)cc(-c3ccc(N4CCN(C)CC4)cc3)n2)cc1 (centres unmarked) [Example 55] | 3.56
CNS(=O)(=O)c1ccc(-c2cc(NCCCN(C)CCCN)cc(-c3ccc(OC)cc3)n2)cc1 [Example 53] | 4.17
COc1ccc(-c2cc(NCCCN(C)CCCN)cc(-c3ccc(N4CCNCC4)cc3)n2)cc1 [Example 2, N-{3-[(3-aminopropyl)(methyl)amino]propyl}-2-(4-methoxyphenyl)-6-[4-(piperazin-1-yl)phenyl]pyridin-4-amine] | 0.03
COc1ccc(-c2cc(NCCCN(C)CCCN)nc(-c3ccc(N4CCNCC4)cc3)n2)cc1 [Example 78, N-{3-[(3-aminopropyl)(methyl)amino]propyl}-6-(4-methoxyphenyl)-2-[4-(piperazin-1-yl)phenyl]pyrimidin-4-amine] | 0.2
COc1ccc(-c2cc(NCCCN(C)CCCN)cc(-c3c(C)noc3C)n2)cc1 [Example 47] | 4.64
COc1ccc(-c2cc(NCCCN(C)CCCN)cc(-c3cccc(N4CCNCC4)c3)n2)cc1 [Example 7, N-{3-[(3-aminopropyl)(methyl)amino]propyl}-2-(4-methoxyphenyl)-6-[3-(piperazin-1-yl)phenyl]pyridin-4-amine] | 0.05
COc1ccc(-c2cc(NCCCN3CCC(CN)C3)cc(-c3ccc(N4CCNCC4)cc3)n2)cc1 (centres unmarked) [Example 26] | 0.1
COc1cc2c(NCCCN(C)C)ccnc2cc1OCCN1CCCC1 [Example 83] | 0.19
COc1ccc(-c2cc(NCC3CCN(CC4CNC4)CC3)cc(-c3ccc(N4CCN(C)CC4)cc3)n2)cc1 [Example 29] | 0.11
COc1ccc(-c2cc(NCCCN(C)C)cc(-c3ccc(OCCCN(C)C)nc3)n2)cc1 [Example 81] | 0.72
COc1ccc(-c2cc(NCC3CCCN(C)C3)cc(-c3ccc(N4CCN(C)CC4)cc3)n2)cc1 (centres unmarked) [Example 67] | 1.17
NCCCNc1cc(-c2ccc(N3CCNCC3)cc2)nc2ccsc12 [Example 86] | 0.2
COc1ccc(-c2cc(NCC(F)(F)CN)cc(-c3ccc(N4CCN(C)CC4)cc3)n2)cc1 [Example 63, N-(3-amino-2,2-difluoropropyl)-2-(4-methoxyphenyl)-6-(4-(4-methylpiperazin-1-yl)phenyl)pyridin-4-amine] | 1.49
CN(C)CCCNc1cc(-c2ccc(N3CCNCC3)cc2)nc(-c2ccc(N3CCCC3)nc2)c1 [Example 44] | 7.95
6-(4-(2-(pyrrolidin-1-yl)ethoxy)phenyl)-N-(piperidin-4-yl)-1H-indazol-3-amine [Example 95] | 2.4
COc1ccc(-c2cc(NC3CCNCC3F)cc(-c3ccc(N4CCN(C)CC4)cc3)n2)cc1 (centres unmarked) [Example 68] | 0.89
COc1ccc(-c2cc(N(C)C3CCNCC3)cc(-c3ccc(N4CCNCC4)cc3)n2)cc1 [Example 41] | 0.33
COc1ccc(-c2cc(NCCCN(C)CCCN)cc(-c3ccc(N4CCN(C)CC4)cc3)n2)cc1 [Example 23] | 0.08
CN(CCCN)CCCNc1cc(-c2ccc(N3CCNCC3)cc2)nc(-c2ccc3c(c2)CCNC3)c1 [Example 28] | 0.11

Molecule | IC50 [µM]
COc1ccc(-c2cc(NCCCN(C)CCCN)cc(-c3ccc(N4CCCCC4)cc3)n2)cc1 [Example 69] | 0.74
COc1ccc(-c2cc(NCCCN3CCCCC3)cc(C3=CCNCC3)n2)cc1 [Example 61] | 1.87
COc1ccc(-c2cc(NCC3CCCN3)cc(-c3ccc(N4CCC(C)CC4)cc3)n2)cc1 (centres unmarked) [Example 57] | 2.85
N^1-(4-(4-methoxyphenyl)-6-(4-(piperazin-1-yl)phenyl)pyridin-2-yl)-N^3,N^3-dimethylpropane-1,3-diamine [Example 79] | 1.09
COc1ccc(-c2cc(NCCCOCCCN)cc(-c3ccc(N4CCNCC4)cc3)n2)cc1 [Example 66] | 1.2
COc1ccc(-c2cc(NCCCN(C)CCCN)cc(-c3ccc(N4CCN(C(=O)OC(C)(C)C)CC4)cc3)n2)cc1 [Example 38] | 0.17
COc1ccc(-c2cc(NCCCN(C)CCCN)cc(-c3cnc(N4CCOCC4)s3)n2)cc1 [Example 52, N^1-(3-aminopropyl)-N^3-(2-(4-methoxyphenyl)-6-(2-morpholinothiazol-5-yl)pyridin-4-yl)-N^1-methylpropane-1,3-diamine] | 5.58
COc1ccc(-c2cc(NCC3CCN(CC4CNC4)C3)cc(-c3ccc(N4CCN(C)CC4)cc3)n2)cc1 (centres unmarked) [Example 34] | 0.14
CN(CCCN)CCCNc1cc(-c2ccc(N3CCNCC3)cc2)nc(-c2ccc(N3CCNCC3)cc2)c1 [Example 1] | 0.02
CN(CCCN)CCCNc1cc(C#CC2CCNCC2)nc(-c2ccc(N3CCNCC3)cc2)c1 [Example 11, N-{3-[(3-aminopropyl)(methyl)amino]propyl}-2-[4-(piperazin-1-yl)phenyl]-6-[2-(piperidin-4-yl)ethynyl]pyridin-4-amine] | 0.06
COc1ccc(-c2cc(NC3CCN(CC4CCNC4)CC3)cc(-c3ccc(N4CCNCC4)cc3)n2)cc1 (centres unmarked) [Example 30] | 0.12
COc1ccc(-c2cc(NC3CCNCC3)cc(-c3ccc(N4CCN(C)CC4)cc3)n2)cc1 [Example 9, 2-(4-methoxyphenyl)-6-(4-(4-methylpiperazin-1-yl)phenyl)-N-(piperidin-4-yl)pyridin-4-amine] | 0.05
CN1CCN(c2cncc(-c3cc(NCCCN)cc(-c4ccc(N5CCNCC5)cc4)n3)c2)CC1 [Example 45] | 1.07
COc1ccc(-c2cc(NCCCN)cc(-n3cc4c(n3)CNC4)n2)cc1 [Example 43] | 0.46
COc1ccc(-c2cc(NCCCN(C)C)cc(-c3cccc(OCCN(C)C)c3)n2)cc1 [Example 92] | 0.34
COc1ccc(-c2cc(NCCCN3CCC4NCCC43)cc(-c3ccc(N4CCNCC4)cc3)n2)cc1 (centres unmarked) [Example 65] | 1.32
COc1ccc(-c2cc(NCCCN3CCNCC3)cc(-c3ccc(N4CCN(C)CC4)cc3)n2)cc1 [Example 72] | 0.55
COc1ccc(-c2cc(NCCCN(C)CCCN)cc(-c3ccc(N4CCN(CC5CC5)CC4)cc3)n2)cc1 [Example 10] | 0.06
NCCCNc1n[nH]c2cc(-c3ccc(N4CCNCC4)cc3)ccc12 [Example 87] | 0.15
COc1ccc(-c2cc(NCCCN(C)C)cc(-c3ccc(N4CCN(C)CC4)cc3)n2)cc1 [Example 40] | 0.21

Molecule | IC50 [µM]
CNc1ccc(-c2cc(NCCCN(C)CCCN)cc(-c3ccc(OC)cc3)n2)cc1 [Example 19] | 0.08
COc1ccc(-c2cc(NCCCN(C)CCCN)cc(-c3ccc(-c4ccncc4)cc3)n2)cc1 [Example 33] | 0.13
COc1ccc(-c2cc(NCCN(C)CCN)cc(-c3ccc(N4CCNCC4)cc3)n2)cc1 [Example 70] | 0.63
COc1ccc(-c2cc(N[C@H]3CC[C@H](N)CC3)cc(-c3cccc(OCCN(C)C)c3)n2)cc1 [Example 93, trans-N1-(2-(3-(2-(dimethylamino)ethoxy)phenyl)-6-(4-methoxyphenyl)pyridin-4-yl)cyclohexane-1,4-diamine] | 0.11
CN(CCCN)CCCNc1cc(-c2ccc(C3CCNCC3)cc2)nc(-c2ccc(N3CCNCC3)cc2)c1 [Example 8] | 0.05
COc1ccc(-c2cc(N[C@H]3CC[C@H](N)CC3)cc(-c3cccc(OCCN4CCCC4)c3)n2)cc1 [Example 90] | 0.09
COc1ccc(-c2cc(NCCCN(C)CCCN)cc(-c3ccc(N4CCN(C)C(F)C4)cc3)n2)cc1 (centres unmarked) [Example 76] | 0.23
COc1ccc(-c2cc(NCCCN(C)C)cc(-c3ccc(N4CCOCC4)cc3)n2)cc1 [Example 59] | 2.04
CN(CCCN)CCCNc1cc(-c2ccc(CN3CCNCC3)cc2)nc(-c2ccc(N3CCNCC3)cc2)c1 [Example 16] | 0.07
Ethyl 4-(2-(4-methoxyphenyl)-6-(4-(piperazin-1-yl)phenyl)pyridin-4-ylamino)piperidine-1-carboxylate [Example 49] | 5.78
COc1ccc(-c2cc(NCCCN(C)C)cc(-c3cccc(OCCCN(C)C)c3)n2)cc1 [Example 89, 2-(3-(3-(dimethylamino)propoxy)phenyl)-N-(3-(dimethylamino)propyl)-6-(4-methoxyphenyl)pyridin-4-amine] | 0.17
COc1ccc(-c2cc(NCCCN3CCCCC3)cc(-c3cc(OC)cc(OC)c3)n2)cc1 [Example 46] | 6.93
CN(C)CCCNc1cc(-c2ccc(OCCCN3CCCC3)cc2)nc2ccccc12 [Example 82] | 0.11
CN(C)CCCNc1cc(-c2ccc(OCCn3cccn3)cc2)nc2ccccc12 [Example 84] | 0.55
COc1ccc(-c2cc(N[C@H]3C[C@H](N)C3)cc(-c3cccc(OCCN4CCCC4)c3)n2)cc1 [Example 88, trans-N1-(2-(3-(2-(pyrrolidin-1-yl)ethoxy)phenyl)-6-(4-methoxyphenyl)pyridin-4-yl)cyclobutane-1,3-diamine] | 0.18
COc1ccc(-c2cc(NCCCN)cc(-c3ccc(N4CCNCC4)cc3)n2)cc1 [Example 31, N^1-(2-(4-methoxyphenyl)-6-(4-(piperazin-1-yl)phenyl)pyridin-4-yl)propane-1,3-diamine] | 0.12
COc1ccc(-c2cc(NCCCN(C)CCCN)cc(CCC3CC3)n2)cc1 [Example 71, N-{3-[(3-aminopropyl)(methyl)amino]propyl}-2-(2-cyclopropylethyl)-6-(4-methoxyphenyl)pyridin-4-amine] | 0.57
COc1ccc(-c2cc(NCC3CCN(CC4CCNC4)CC3)cc(-c3ccc(N4CCN(C)CC4)cc3)n2)cc1 (centres unmarked) [Example 25] | 0.09
COc1ccc(-c2cc(NC3CCN(CCCN)CC3)cc(-c3ccc(N4CCN(C)CC4)cc3)n2)cc1 [Example 5, N-(1-(3-aminopropyl)piperidin-4-yl)-2-(4-methoxyphenyl)-6-(4-(4-methylpiperazin-1-yl)phenyl)pyridin-4-amine] | 0.04
